In patent publication US12577206B2 (BRISTOL-MYERS SQUIBB COMPANY, priority 2020, dated 2026):

How the values were obtained:
[1] = target: T1, human FPR2 (Homo sapiens, UniProt P25090); experiment: FPR2 cyclic adenosine monophosphate (cAMP) assay; assay type: cell-based; conditions: CHO cells overexpressing human FPR2; forskolin 5 μM; inhibition of cAMP production; HTRF; read-out: hFPR2 cAMP2 EC50
T1 sequence (P25090 1-351): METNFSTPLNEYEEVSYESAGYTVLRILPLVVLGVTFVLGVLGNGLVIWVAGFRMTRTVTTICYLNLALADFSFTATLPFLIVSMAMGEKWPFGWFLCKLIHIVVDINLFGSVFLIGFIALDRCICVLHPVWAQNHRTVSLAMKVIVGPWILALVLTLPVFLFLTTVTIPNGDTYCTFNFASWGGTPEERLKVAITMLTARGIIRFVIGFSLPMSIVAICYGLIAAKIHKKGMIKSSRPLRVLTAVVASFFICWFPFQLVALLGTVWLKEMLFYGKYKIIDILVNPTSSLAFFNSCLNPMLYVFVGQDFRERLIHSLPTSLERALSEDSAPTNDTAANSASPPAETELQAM
How it was run: (§1)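 CHO cells overexpressing human FPR1 (4,000/well) or FPR2 (2,000/well) were incubated 30 min at room temperature with compound (0.020 nM to 100 μM, 1% DMSO), IBMX 200 μM, and forskolin at 10 μM (FPR1) or 5 μM (FPR2), all final. HTRF cAMP read-out; inhibition fitted by 4-parameter logistic equation.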

[2] = target: T2, human FPR1 (Homo sapiens, UniProt P21462); experiment: FPR1 cyclic adenosine monophosphate (cAMP) assay; assay type: cell-based; conditions: CHO cells overexpressing human FPR1; forskolin 10 μM; inhibition of cAMP production; HTRF; read-out: hFPR1 cAMP2 EC50
T2 sequence (P21462 1-350): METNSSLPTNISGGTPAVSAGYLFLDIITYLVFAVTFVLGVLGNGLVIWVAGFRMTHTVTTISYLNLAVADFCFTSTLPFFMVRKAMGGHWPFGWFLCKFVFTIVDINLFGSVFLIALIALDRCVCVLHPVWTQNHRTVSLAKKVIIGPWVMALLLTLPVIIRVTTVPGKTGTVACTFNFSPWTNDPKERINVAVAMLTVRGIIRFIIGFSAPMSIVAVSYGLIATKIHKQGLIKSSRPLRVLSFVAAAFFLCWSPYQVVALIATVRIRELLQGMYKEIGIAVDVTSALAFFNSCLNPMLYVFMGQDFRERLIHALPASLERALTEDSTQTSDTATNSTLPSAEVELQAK
How it was run: as §1

Compound | EC50 [1] [nM] | EC50 [2] [nM]
COc1cc(OC(CO)C(F)(F)F)nc(-n2c(=O)c(NC(=O)c3ccc(OC(F)F)cc3)c(-c3c(F)cc(OC)cc3F)n2C)c1 (centres unmarked) [Example 381, N-(5-(2,6-Difluoro-4-methoxyphenyl)-2-(4-methoxy-6-((1,1,1-trifluoro-3-hydroxypropan-2-yl)oxy)pyridin-2-yl)-1-methyl-3-oxo-2,3-dihydro-1H-pyrazol-4-yl)-4-(difluoromethoxy)benzamide] | 2 | 1900
COCC(CO)Oc1cc(OC)cc(-n2c(=O)c(NC(=O)c3ccc(OC(F)F)cc3)c(-c3c(F)cc(OC)cc3F)n2C)n1 (centres unmarked) [Example 382, N-(5-(2,6-Difluoro-4-methoxyphenyl)-2-(6-((1-hydroxy-3-methoxypropan-2-yl)oxy)-4-methoxypyridin-2-yl)-1-methyl-3-oxo-2,3-dihydro-1H-pyrazol-4-yl)-4-(difluoromethoxy)benzamide] | 8 | > 10000
COc1cc(OCC(O)C(F)(F)F)nc(-n2c(=O)c(NC(=O)c3ccc(OC(F)F)cc3)c(-c3c(F)cc(OC)cc3F)n2C)c1 (centres unmarked) [Example 383, N-(5-(2,6-Difluoro-4-methoxyphenyl)-2-(4-methoxy-6-(3,3,3-trifluoro-2-hydroxypropoxy)pyridin-2-yl)-1-methyl-3-oxo-2,3-dihydro-1H-pyrazol-4-yl)-4-(difluoromethoxy)benzamide] | 1 | 2500
COc1cc(OCC2(CO)COC2)nc(-n2c(=O)c(NC(=O)c3ccc(OC(F)F)cc3)c(-c3c(F)cc(OC)cc3F)n2C)c1 [Example 384, N-(5-(2,6-Difluoro-4-methoxyphenyl)-2-(6-((3-(hydroxymethyl)oxetan-3-yl)methoxy)-4-methoxypyridin-2-yl)-1-methyl-3-oxo-2,3-dihydro-1H-pyrazol-4-yl)-4-(difluoromethoxy)benzamide] | 7 | > 10000
COc1cc(OCC(C)(C)F)nc(-n2c(=O)c(NC(=O)c3ccc(OC(F)F)cc3)c(-c3c(F)cc(OC)cc3F)n2C)c1 [Example 385, N-(5-(2,6-Difluoro-4-methoxyphenyl)-2-(6-(2-fluoro-2-methylpropoxy)-4-methoxypyridin-2-yl)-1-methyl-3-oxo-2,3-dihydro-1H-pyrazol-4-yl)-4-(difluoromethoxy)benzamide] | 3 | > 10000
COCC(CO)Oc1cc(OC)cc(-n2c(=O)c(NC(=O)c3ccc(OC(F)F)cc3)c(-c3c(F)cc(OC)cc3F)n2C)n1 (centres unmarked) [Example 386, N-(5-(2,6-Difluoro-4-methoxyphenyl)-2-(6-((1-hydroxy-3-methoxypropan-2-yl)oxy)-4-methoxypyridin-2-yl)-1-methyl-3-oxo-2,3-dihydro-1H-pyrazol-4-yl)-4-(difluoromethoxy)benzamide] | 9 | > 10000
COc1cc(OCC(C)(F)F)nc(-n2c(=O)c(NC(=O)c3ccc(OC(F)F)cc3)c(-c3c(F)cc(OC)cc3F)n2C)c1 [Example 387, N-(5-(2,6-Difluoro-4-methoxyphenyl)-2-(6-(2,2-difluoropropoxy)-4-methoxypyridin-2-yl)-1-methyl-3-oxo-2,3-dihydro-1H-pyrazol-4-yl)-4-(difluoromethoxy)benzamide] | 8 | > 10000
COc1cc(F)c(-c2c(NC(=O)c3ccc(OC(F)F)cc3)c(=O)n(-c3ccc(OCCO)cn3)n2C)c(F)c1 [Example 388, N-(5-(2,6-Difluoro-4-methoxyphenyl)-2-(5-(2-hydroxyethoxy)pyridin-2-yl)-1-methyl-3-oxo-2,3-dihydro-1H-pyrazol-4-yl)-4-(difluoromethoxy)benzamide] | 4 | 3600
COc1cc(OCC(F)(F)F)nc(-n2c(=O)c(NC(=O)c3ccc(OC(F)F)cc3)c(-c3c(F)cc(OC)cc3F)n2C)c1 [Example 389, N-(5-(2,6-Difluoro-4-methoxyphenyl)-2-(4-methoxy-6-(2,2,2-trifluoroethoxy)pyridin-2-yl)-1-methyl-3-oxo-2,3-dihydro-1H-pyrazol-4-yl)-4-(difluoromethoxy)benzamide] | 6 | 4500
COc1cc(OC(CO)C(F)(F)F)nc(-n2c(=O)c(NC(=O)c3ccc(OC(F)F)cc3)c(-c3c(F)cc(OC)cc3F)n2C)c1 (centres unmarked) [Example 390, N-(5-(2,6-Difluoro-4-methoxyphenyl)-2-(4-methoxy-6-((1,1,1-trifluoro-3-hydroxypropan-2-yl)oxy)pyridin-2-yl)-1-methyl-3-oxo-2,3-dihydro-1H-pyrazol-4-yl)-4-(difluoromethoxy)benzamide] | 10 | 2200
COc1cc(F)c(-c2c(NC(=O)c3ccc(OC(F)F)cc3)c(=O)n(-c3cc(OCC4CCCO4)cc(C)n3)n2C)c(F)c1 (centres unmarked) [Example 391, N-(5-(2,6-Difluoro-4-methoxyphenyl)-1-methyl-2-(6-methyl-4-((tetrahydrofuran-2-yl)methoxy)pyridin-2-yl)-3-oxo-2,3-dihydro-1H-pyrazol-4-yl)-4-(difluoromethoxy)benzamide] | 6 | 240
COc1cc(F)c(-c2c(NC(=O)c3ccc(OC(F)F)cc3)c(=O)n(-c3cccc(OCC(C)(C)O)n3)n2C)c(F)c1 [Example 392, N-(5-(2,6-Difluoro-4-methoxyphenyl)-2-(6-(2-hydroxy-2-methylpropoxy)pyridin-2-yl)-1-methyl-3-oxo-2,3-dihydro-1H-pyrazol-4-yl)-4-(difluoromethoxy)benzamide] | 22 | 830
COc1cc(F)c(-c2c(NC(=O)c3ccc(OC(F)F)cc3)c(=O)n(-c3cc(OCC(C)O)cc(C)n3)n2C)c(F)c1 (centres unmarked) [Example 393, N-(5-(2,6-Difluoro-4-methoxyphenyl)-2-(4-(2-hydroxypropoxy)-6-methylpyridin-2-yl)-1-methyl-3-oxo-2,3-dihydro-1H-pyrazol-4-yl)-4-(difluoromethoxy)benzamide] | 15 | 2800
COc1cc(F)c(-c2c(NC(=O)c3ccc(OC(F)F)cc3)c(=O)n(-c3cc(OCC(C)O)cc(C)n3)n2C)c(F)c1 (centres unmarked) [Example 394, N-(5-(2,6-Difluoro-4-methoxyphenyl)-2-(4-(2-hydroxypropoxy)-6-methylpyridin-2-yl)-1-methyl-3-oxo-2,3-dihydro-1H-pyrazol-4-yl)-4-(difluoromethoxy)benzamide] | 5 | 740
COc1cc(F)c(-c2c(NC(=O)c3ccc(OC(F)F)cc3)c(=O)n(-c3cccn(C)c3=O)n2C)c(F)c1 [Example 395, N-(5-(2,6-Difluoro-4-methoxyphenyl)-1-methyl-2-(1-methyl-2-oxo-1,2-dihydropyridin-3-yl)-3-oxo-2,3-dihydro-1H-pyrazol-4-yl)-4-(difluoromethoxy)benzamide] | 61 | > 10000
COc1cc(F)c(-c2c(NC(=O)c3ccc(OC(F)F)cc3)c(=O)n(-c3cc(OCC4CCCO4)cc(C)n3)n2C)c(F)c1 (centres unmarked) [Example 396, N-(5-(2,6-Difluoro-4-methoxyphenyl)-1-methyl-2-(6-methyl-4-((tetrahydrofuran-2-yl)methoxy)pyridin-2-yl)-3-oxo-2,3-dihydro-1H-pyrazol-4-yl)-4-(difluoromethoxy)benzamide] | 2 | 300
[2H]C([2H])([2H])Oc1cc(F)c(-c2c(NC(=O)c3ccc(OC(F)F)cc3)c(=O)n(-c3cc(C(F)F)ccn3)n2C)c(F)c1 [Example 397, N-(5-(2,6-difluoro-4-(methoxy-d3)phenyl)-2-(4-(difluoromethyl)pyridin-2-yl)-1-methyl-3-oxo-2,3-dihydro-1H-pyrazol-4-yl)-4-(difluoromethoxy)benzamide] | 8 | > 10000
CC(C)Oc1cc(OCCO)nc(-n2c(=O)c(NC(=O)c3ccc(OC(F)(F)F)cc3)c(-c3c(F)cc(Cl)cc3F)n2C)c1 [Example 398, N-(5-(4-chloro-2,6-difluorophenyl)-2-(6-(2-hydroxyethoxy)-4-isopropoxypyridin-2-yl)-1-methyl-3-oxo-2,3-dihydro-1H-pyrazol-4-yl)-4-(trifluoromethoxy)benzamide] | 24 | 590
CC(C)Oc1cc(OCCO)nc(-n2c(=O)c(NC(=O)c3ccc(OC(F)F)cc3)c(-c3c(F)cc(Cl)cc3F)n2C)c1 [Example 399, N-(5-(4-chloro-2,6-difluorophenyl)-2-(6-(2-hydroxyethoxy)-4-isopropoxypyridin-2-yl)-1-methyl-3-oxo-2,3-dihydro-1H-pyrazol-4-yl)-4-(difluoromethoxy)benzamide] | 11 | 550
